In PubChem BioAssay (NCI):
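Step 1: Grow cells in 96-well plates. Step 2: Expose to compound for 48 hours at 5 concentrations. Step 3: Interpolate endpoints linearly; if unreached, use highest concentration. At the GI50, growth is halved. TGI: concentration producing complete growth inhibition.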

Experiments:
Test in all cases: NCI tumour cell line growth inhibition, 48 h
786-0 renal = test system: 786-0 renal
A498 renal = test system: A498 renal
A549 NSCLC = test system: A549 NSCLC
ACHN renal = test system: ACHN renal
BT-549 breast = test system: BT-549 breast
CAKI-1 renal = test system: CAKI-1 renal
CCRF-CEM leukemia = test system: CCRF-CEM leukemia
COLO 205 colon = test system: COLO 205 colon
DU-145 prostate = test system: DU-145 prostate
EKVX NSCLC = test system: EKVX NSCLC
HCC-2998 colon = test system: HCC-2998 colon
HCT-116 colon = test system: HCT-116 colon
HCT-15 colon = test system: HCT-15 colon
HL-60(TB) leukemia = test system: HL-60(TB) leukemia
HOP-62 NSCLC = test system: HOP-62 NSCLC
HOP-92 NSCLC = test system: HOP-92 NSCLC
HS 578T breast = test system: HS 578T breast
HT29 colon = test system: HT29 colon
IGROV1 ovarian = test system: IGROV1 ovarian
K-562 leukemia = test system: K-562 leukemia
KM12 colon = test system: KM12 colon
LOX IMVI melanoma = test system: LOX IMVI melanoma
M14 melanoma = test system: M14 melanoma
MALME-3M melanoma = test system: MALME-3M melanoma
MCF7 breast = test system: MCF7 breast
MDA-MB-231 breast = test system: MDA-MB-231 breast
MDA-MB-435 = test system: MDA-MB-435
MDA-MB-468 breast = test system: MDA-MB-468 breast
MOLT-4 leukemia = test system: MOLT-4 leukemia
NCI-H226 lung = test system: NCI-H226 lung
NCI-H23 lung = test system: NCI-H23 lung
NCI-H460 lung = test system: NCI-H460 lung
NCI-H522 lung = test system: NCI-H522 lung
NCI/ADR-RES ovarian = test system: NCI/ADR-RES ovarian
OVCAR-3 ovarian = test system: OVCAR-3 ovarian
OVCAR-4 ovarian = test system: OVCAR-4 ovarian
OVCAR-5 ovarian = test system: OVCAR-5 ovarian
OVCAR-8 ovarian = test system: OVCAR-8 ovarian
PC-3 prostate = test system: PC-3 prostate
RPMI-8226 leukemia = test system: RPMI-8226 leukemia
RXF 393 renal = test system: RXF 393 renal
SF-268 CNS = test system: SF-268 CNS
SF-295 CNS = test system: SF-295 CNS
SF-539 CNS = test system: SF-539 CNS
SK-MEL-2 melanoma = test system: SK-MEL-2 melanoma
SK-MEL-28 melanoma = test system: SK-MEL-28 melanoma
SK-MEL-5 melanoma = test system: SK-MEL-5 melanoma
SK-OV-3 ovarian = test system: SK-OV-3 ovarian
SN12C renal = test system: SN12C renal
SNB-19 CNS = test system: SNB-19 CNS
SNB-75 CNS = test system: SNB-75 CNS
SR leukemia = test system: SR leukemia
SW-620 colon = test system: SW-620 colon
T-47D breast = test system: T-47D breast
TK-10 renal = test system: TK-10 renal
U251 CNS = test system: U251 CNS
UACC-257 melanoma = test system: UACC-257 melanoma
UACC-62 melanoma = test system: UACC-62 melanoma
UO-31 renal = test system: UO-31 renal

## O=C(c1ccc(Cl)cc1)C1[C@H](c2ccccc2Cl)[C@@H](c2ccccc2)NC12C(=O)Nc1ccc(Cl)cc12 (stereo partly drawn)
786-0 renal
  GI50: 19.1 µM
  TGI: 39.7 µM
A498 renal
  GI50: 19.9 µM
  TGI: 46.6 µM
A549 NSCLC
  GI50: 18.5 µM
  TGI: 46.1 µM
ACHN renal
  GI50: 25.5 µM
  TGI: 79.5 µM
BT-549 breast
  GI50: 16.2 µM
  TGI: 33.3 µM
CAKI-1 renal
  GI50: 15.2 µM
  TGI: 43.5 µM
CCRF-CEM leukemia
  GI50: 26.7 µM
  TGI: 72.9 µM
COLO 205 colon
  GI50: 16.5 µM
  TGI: 30.1 µM
DU-145 prostate
  GI50: 20.1 µM
  TGI: 42.7 µM
EKVX NSCLC
  GI50: 18 µM
  TGI: 47.6 µM
HCC-2998 colon
  GI50: 16.3 µM
  TGI: 32.7 µM
HCT-116 colon
  GI50: 14.6 µM
  TGI: 28.2 µM
HCT-15 colon
  GI50: 16.1 µM
  TGI: 31.3 µM
HL-60(TB) leukemia
  GI50: 19.9 µM
  TGI: 52.5 µM
HOP-62 NSCLC
  GI50: 14.8 µM
  TGI: 29.3 µM
HOP-92 NSCLC
  GI50: 16 µM
  TGI: 33.8 µM
HS 578T breast
  GI50: 16.5 µM
  TGI: 40.2 µM
HT29 colon
  GI50: 15.6 µM
  TGI: 32.5 µM
IGROV1 ovarian
  GI50: 16.7 µM
  TGI: 38.5 µM
K-562 leukemia
  GI50: 26.6 µM
  TGI: > 100 µM
KM12 colon
  GI50: 18.2 µM
  TGI: 38.1 µM
LOX IMVI melanoma
  GI50: 14.9 µM
  TGI: 28.1 µM
M14 melanoma
  GI50: 15.3 µM
  TGI: 28.7 µM
MALME-3M melanoma
  GI50: 15.4 µM
  TGI: 29 µM
MCF7 breast
  GI50: 17.6 µM
  TGI: 42.6 µM
MDA-MB-231 breast
  GI50: 15.6 µM
  TGI: 29.5 µM
MDA-MB-435
  GI50: 16 µM
  TGI: 30.3 µM
MDA-MB-468 breast
  GI50: 11.8 µM
  TGI: 25.8 µM
MOLT-4 leukemia
  GI50: 23.6 µM
  TGI: 78.7 µM
NCI-H226 lung
  GI50: 14.9 µM
  TGI: 30.3 µM
NCI-H23 lung
  GI50: 16.2 µM
  TGI: 33.2 µM
NCI-H460 lung
  GI50: 19 µM
  TGI: 36.3 µM
NCI-H522 lung
  GI50: 13.7 µM
  TGI: 30.3 µM
NCI/ADR-RES ovarian
  GI50: 16.3 µM
  TGI: 33.2 µM
OVCAR-3 ovarian
  GI50: 16.8 µM
  TGI: 35.3 µM
OVCAR-4 ovarian
  GI50: 20.8 µM
  TGI: 58.4 µM
OVCAR-5 ovarian
  GI50: 15.9 µM
  TGI: 31.6 µM
OVCAR-8 ovarian
  GI50: 17.9 µM
  TGI: 39.5 µM
PC-3 prostate
  GI50: 15.1 µM
  TGI: 36.1 µM
RPMI-8226 leukemia
  GI50: 25.6 µM
  TGI: 79.7 µM
RXF 393 renal
  GI50: 13.9 µM
  TGI: 29.3 µM
SF-268 CNS
  GI50: 19.5 µM
  TGI: 48.2 µM
SF-295 CNS
  GI50: 16.9 µM
  TGI: 34.8 µM
SF-539 CNS
  GI50: 16.9 µM
  TGI: 32.6 µM
SK-MEL-2 melanoma
  GI50: 16.2 µM
  TGI: 32.7 µM
SK-MEL-28 melanoma
  GI50: 17.1 µM
  TGI: 31.6 µM
SK-MEL-5 melanoma
  GI50: 16.6 µM
  TGI: 30.6 µM
SK-OV-3 ovarian
  GI50: 21 µM
  TGI: 61.2 µM
SN12C renal
  GI50: 15.3 µM
  TGI: 28.7 µM
SNB-19 CNS
  GI50: 23.1 µM
  TGI: 78.9 µM
SNB-75 CNS
  GI50: 11.1 µM
  TGI: 36.9 µM
SR leukemia
  GI50: 18.5 µM
  TGI: 47.7 µM
SW-620 colon
  GI50: 15.9 µM
  TGI: 31.8 µM
T-47D breast
  GI50: 16.1 µM
  TGI: 39.6 µM
TK-10 renal
  GI50: 19.6 µM
  TGI: 53.2 µM
U251 CNS
  GI50: 16.8 µM
  TGI: 33 µM
UACC-257 melanoma
  GI50: 20.4 µM
  TGI: 44.1 µM
UACC-62 melanoma
  GI50: 13.4 µM
  TGI: 26.7 µM
UO-31 renal
  GI50: 12.9 µM
  TGI: 37.7 µM
